Experiments:
Assay type in all cases: cell-based, human
[1] = tested on: ATR-H cells; experiment: Free cellular H2S measurement by HPLC after MBB derivatization, ATR-H cells
Method: (§1) Cells: The human colon cancer cell line DLD1 cell line containing wild-type ATR (ATR cells) or the ATR-Seckel knock-in hypomorphic mutation (ATR-H cells) were a kind gift from Dr. Fred Bunz of the Department of Radiation Oncology and Molecular Radiation Sciences, The Johns Hopkins University School of Medicine. The cells were cultured in DMEM with 5% FBS, 1% penicillin/streptomycin.
(§2) H2S measurements: Bioavailable sulfide levels were measured as previously reported. Levels of free sulfide (H2S) in ATR and ATR-H cells were measured by high performance liquid chromatography (HPLC) after derivatization with excess MBB as stable products sulfide-dibimane (SDB). Briefly, ATR and ATR-H cells were homogenized in Tris.HCl buffer [100 mM Tris.HCl (pH 9.5) and 0.1 mM diethylenetriaminepentaacetic acid (DTPA)]. Cell lysates were derivatized with MBB and then measured by Shimadzu Prominence 20 A equipment with RF-10AXL (excitation wavelength: […] and emission wavelength: […]) and an Eclipse XDB-C18 column (4.6×50 mm, 5 μm). Typical retention times of SDB were 16.5 min. H2S levels were calculated according to the standard SDB.

[2] = tested on: ATR cells; experiment: Free cellular H2S measurement by HPLC after MBB derivatization, ATR cells
Method: as §1, §2

[3] = tested on: DLD1 cell line containing wild-type ATR (ATR cells); experiment: Colony forming-efficiency assay, ATR wild-type cells; conditions: 11 days; for sensitivity of colony formation to t-BOOH after H2S inhibitor pretreatment: 2 h 1 mM β-cyano-l-alanine, then 15 min 50, 100 or 200 μM t-BOOH
Method: as §1
(§3) Colony forming-efficiency assay: Colony forming-efficiency (CEFA) experiments were performed. In brief, exponentially growing cells were plated for 12 h at 2000 cells/100 mm tissue culture dish in 10 ml appropriate media. The cells were pretreated for 2 h with either an H2S inhibitor (β-cyano-1-alanine, 1 mM) or donor (diallyl trisulfide, 20 uM), washed 3× with 1× phospate buffered saline, the media replaced, and the cells were immediately treated with for 15 min with 50, 100, and 200 μM t-butyl hydroperoxide (t-BOOH). Following treatment, the cells were washed 3× with phosphate-buffered saline, the media replaced and the cells cultured for 11 days. The resulting colonies were fixed and stained by water: methanol addition (1:1) containing crystal violet (1 g/l). “Colonies” consisted of cell clusters containing greater than 50 cells when counted by dissecting microscopy.

[4] = tested on: ATR-pS435 in ATR cells; experiment: Western blot of ATR serine 435 phosphorylation, ATR cells
Method: as §1
(§4) Western blotting: To prepare whole cell lysates from ATR and ATR-H cells, the cells were grown in 6-well plates, the medium was removed, and 300 μl of SDS sample buffer (62.5 mM Tris-HCl (pH 6.8), 2% w/v SDS, 10% glycerol, 50 mM dithiothreitol, 0.1% w/v bromphenol blue) was added to each well. Following lysis in SDS sample buffer, lysates were harvested with cell scrapers and collected in Eppendorf tubes. The lysates were boiled, centrifuged, and frozen at −20° C. until gel electrophoresis was performed. The protein concentrations were measured by Bio-rad DC protein assay. Twenty […] of total protein supernatant extract was mixed with 2×SDS loading buffer according to protein concentration. Lysates separated by SDS-PAGE were transferred to polyvinylidene difluoride membranes, and membranes were blocked in 5% nonfat dry milk before the addition of primary antibodies. Densitometry was performed with ImageJ software version 1.45 s. All western blots were performed at least in triplicate.

[5] = tested on: DLD1 cell line containing the ATR-Seckel knock-in hypomorphic mutation (ATR-H cells); experiment: Colony forming-efficiency assay, ATR-H cells
Method: as §1, §3

[6] = tested on: ATR-pS435 in ATR-H cells; experiment: Western blot of ATR serine 435 phosphorylation, ATR-H cells
Method: as §1, §4

[7] = tested on: CHK1 serine-345 phosphorylation in ATR cells; experiment: Western blot of CHK1 serine 345 phosphorylation, ATR cells
Method: as §1, §4

[8] = tested on: ATR-H cells; experiment: dsDNA breaks in metaphase chromosomal preparations, ATR-H cells
Method: as §1
(§5) Chromosomal preparation and analysis: One 100-mm tissue culture plate/treatment of logarithmically growing ATR and ATR-H cells at 50% confluence were treated with or without, 1 mM H2S inhibitor β-cyano-l-alanine for two hours, followed by a 15-minute treatment with 10 μM t-BOOH. Following this treatment, the cells were washed 3× with phosphate-buffered saline, the media replaced, and the cells cultured for 1 h. Colcemid (100 ng/ml) was then added for 4 h and the cells harvested by washing 2× in 1×PBS, followed by trypsinization and transference to a 15 ml tube. Two-ml of DMEM with 5% FBS was added/tube and the cells were pelleted 5 min at 500×g. The cells were re-suspended in 5 ml […] and incubated 15 min at 37° C. About 200 μl of fresh methanol: glacial acetic acid at 3:1 (Carnoy's fixative) was added, the cells gently vortexed, and pelleted for 5 min at 500×g. The supernatant was removed and 5 ml of Carnoy's fixative added with gentle vortexing. The cells were pelleted for 5 min at 500×g, the supernatant removed, and 5 ml of Carnoy's fixative was added with gentle vortexing. Chromosomal preparations were made by pelleting the preparations for 5 min at 500×g, removing the supernatant, dropping on slides, drying for 30 min at 90° C., Giemsa staining, washing, and cover-slipping. Each data point represents 5000 individual chromosomal observations preformed under oil immersion microscopy done in triplicate.

[9] = tested on: CHK1 serine-345 phosphorylation in ATR-H cells; experiment: Western blot of CHK1 serine 345 phosphorylation, ATR-H cells; conditions: 2 h 1 mM β-cyano-l-alanine with or without 15 min 10 μM t-BOOH
Method: as §1, §4

[10] = tested on: ATR cells; experiment: dsDNA breaks in metaphase chromosomal preparations, ATR cells; conditions: 2 h 1 mM β-cyano-l-alanine followed by 10 μM t-BOOH
Method: as §1
as §5, with “The cells were pelleted for 5 min at 500×g, the supernatant removed, and 5 ml of Carnoy's fixative was added with gentle vortexing. Chromosomal preparations were made by pelleting the preparations for 5 min at 500×g, removing the supernatant, dropping on slides, drying for 30 min at 90° C., Giemsa staining, washing, and cover-slipping. Each data point represents 5000 individual chromosomal observations preformed under oil immersion microscopy done in triplicate.” left out

[11] = ATR wild-type cells, 2 h 1 mM β-cyano-l-alanine

Nc1nc(N)c(N=O)c(OCC2CCCCC2)n1 [NU6027]
cellular free H2S concentration ([1]; 2 h 12 μM NU6027): but not the ATR-H cells
cellular free H2S concentration ([2]; 2 h 12 μM NU6027): significantly decreased

C=CCSSSCC=C [diallyl trisulfide]
colony formation, H2S donor pretreatment ([3]; 2 h 20 μM diallyl trisulfide): significantly decreased
ATR-pS435 level ([4]; ATR wild-type cells, 2 h 20 μM diallyl trisulfide): inhibited this phosphorylation
colony formation, H2S donor pretreatment ([5]; 2 h 20 μM diallyl trisulfide, 11 days): significantly decreased
ATR-pS435 level ([6]; 2 h 20 μM diallyl trisulfide): not affected by any treatment
cellular free H2S concentration ([2]; 2 h 20 μM diallyl trisulfide): suppressed
CHK1 serine-345 phosphorylation after t-BOOH, H2S donor pretreatment ([7]; ATR wild-type cells, H2S donor pretreatment, then t-BOOH): did not significantly alter

CC(C)(C)OO [t-BOOH, t-butyl hydroperoxide]
dsDNA break formation ([8]; 15 min 10 μM t-BOOH alone): significantly increased dsDNA break formation
colony formation suppression by t-BOOH ([3]; 15 min 50, 100 or 200 μM t-BOOH): colony formation suppression was t-BOOH dose-dependent
induction of ATR-pS435 levels ([4]; ATR wild type cells, 100 μM t-BOOH 15 min, then 45 min in media): ~50%
colony formation suppression by t-BOOH ([5]; 15 min 50, 100 or 200 μM t-BOOH, 11 days): colony formation suppression was t-BOOH dose-dependent
ATR-pS435 level ([6]; 100 μM t-BOOH 15 min, then 45 min in media): not increased

N#CC[C@H](N)C(=O)O [β-cyano-l-alanine]
dsDNA breaks ([8]; 1 mM β-cyano-l-alanine alone): significantly increased dsDNA breaks
dsDNA breaks ([8]; 2 h 1 mM β-cyano-l-alanine followed by 10 μM t-BOOH): significantly increased dsDNA breaks
sensitivity of colony formation to t-BOOH after H2S inhibitor pretreatment [3]: slightly increased the sensitivity of the ATR cells
sensitivity of colony formation to t-BOOH after H2S inhibitor pretreatment ([3]; listed as H2S inhibitor): only significantly potentiated t-BOOH toxicity at the two higher doses
ATR-pS435 level [4, 11]: increased ATR-pS435
increase of ATR-pS435 compared to untreated cell phosphorylation levels [4, 11]: ~50%
CHK1 serine-345 phosphorylation level changes [9]: failed to show significant CHK1 serine-345 phosphorylation level changes
colony formation, H2S inhibitor pretreatment with 200 μM t-BOOH versus 200 μM t-BOOH alone ([5]; 200 μM t-BOOH): not significantly different
colony formation, H2S inhibitor by itself ([5]; 2 h 1 mM β-cyano-l-alanine, no t-BOOH, 11 days): suppressed ATR-H cell colony formation
sensitivity of colony formation to t-BOOH after H2S inhibitor pretreatment ([5]; 2 h 1 mM β-cyano-l-alanine, then 15 min 50, 100 or 200 μM t-BOOH, 11 days, compared to ATR wild-type cells): significantly more sensitive to the same t-BOOH exposures
dsDNA breaks [10]: significantly increased dsDNA breaks
cellular free H2S concentration ([1]; 2 h 1 mM β-cyano-l-alanine): significantly lowered
ATR-pS435 level ([6]; 2 h 1 mM β-cyano-l-alanine): not affected by any treatment
cellular free H2S concentration ([2]; 2 h 1 mM β-cyano-l-alanine): significantly lowered
CHK1 serine-345 phosphorylation after t-BOOH, with versus without H2S inhibitor pretreatment ([7]; ATR cells, 2 h 1 mM β-cyano-l-alanine, then 15 min 10 μM t-BOOH, harvest at 45 min): significantly increased

— patent publication US11510925B2, “Methods and therapeutics to regulate hydrogen sulfide bioavailability” (Board of Supervisors of Louisiana State University and …, priority 2018, dated 2022)
